In patent US20090221643A1, “4-PHENYL-3-(2-PROPYLSULFONYLAMINO) TETRAHYDROFURAN DERIVATIVES WHICH POTENTIATE GLUTAMATE RECEPTORS AND ARE USEFUL IN THE TREATMENT OF SCHIZOPHRENIA” (priority 2006, published 2009) one finds Emax data, which are given here for 12 compounds.

This experiment concerns the target T1, human GluR2 flip (unedited) AMPA receptor subunit (Homo sapiens, UniProt P42262).
T1 construct: expressed in transfected cells
Nature of the experiment: Calcium influx fluorescence assay (FLUO4, FLIPR), potentiation of glutamate response. The format is cell-based. The settings on record: HEK293; HEK 293 cells expressing human GluR2 flip (unedited); fluorescence increase relative to that induced by cyclothiazide at maximum response; read-out: activity relative to cyclothiazide (at its maximal response). As to the method: The ability of the compounds of the invention to potentiate glutamate receptor-mediated response may be determined a) by using fluorescent calcium-indicator dyes such as FLUO4 and additionally b) by measuring glutamate-evoked current recorded from human GluR2 flip unedited HEK293 cells.
384 well plates are prepared containing confluent monolayer of HEK 293 cells either stably expressing or transiently transfected with human GluR2 flip (unedited) AMPA receptor subunit. These cells form functional homotetrameric AMPA receptors. The tissue culture medium in the wells are discarded and the wells are each washed three times with standard buffer (80 μL) for the stable cell line (145 mM NaCl, 5 mM KCl, 1 mM MgCl2, 2 mM CaCl2, 20 mM N-[2-hydroxyethyl]-piperazine-N-[2-ethanesulfonic acid (HEPES), 5.5 mM glucose, pH 7.3) or with a Na-free buffer for the transient transfected cells (145 mM N-methyl-glucamine instead of NaCl). The plates are then incubated for 60 minutes in the dark with 2 μM FLUO4-AM dye (20 μL) (Molecular Probes, Netherlands) at room temperature to allow cell uptake of the FLUO-4AM, which is then converted to FLUO-4 by intracellular esterases which is unable to leave the cell. After incubation each well is washed three times with buffer (80 μL) (30 μL of buffer remained in each well after washing).
Compounds of the invention (or reference compounds such as cyclothiazide) are dissolved in dimethylsulfoxide (DMSO) at a stock concentration of 10 mM. These solutions are further diluted with DMSO using a Biomek FX (Beckman Coulter) in a 384 compound plate. Each dilution (1 μL) is transferred to another compound plate and buffer (50 μL) is added. An agonist stimulus (glutamate) plate is prepared by dissolving sodium glutamate in water to give a concentration of 100 mM. This solution is diluted with buffer to give a final concentration of 500 μM and dispensed into another 384-well plate (50 μL/well) using a Multidrop (Thermolabsystems).
The cell plate is then transferred into a fluorescence imaging plate based reader [such as the FLIPR384 (Molecular Devices)]. A baseline fluorescence reading is taken over a 10 to 240 second period, and then 10 μL from each plate containing a compound of the invention made up in standard buffer solution (in a concentration range from 100 μM to 10 μM) is added (to give a final concentration in the range 30 μM to 3 μM). The fluorescence is read over 5 minute period. 500 μM glutamate solution (10 μL) is added (to give a final concentration of 100 μM). The fluorescence is then read over a 4 minute period. The activities of the compounds of the invention and reference compounds are determined by measuring peak fluorescence after the last addition. The activity is also expressed relative to the fluorescence increase induced by cyclothiazide at their maximum response (i.e. greater than 30 μM).
The assay described above is believed to have an effective limit of detection of a pEC50 in the region of 3.5-4.0 due to the limitations of compound solubility. The pEC50 result is generally considered to be accurate +/−0.3.

T1 sequence (P42262 25-883 isoform P42262-2 limits assumed): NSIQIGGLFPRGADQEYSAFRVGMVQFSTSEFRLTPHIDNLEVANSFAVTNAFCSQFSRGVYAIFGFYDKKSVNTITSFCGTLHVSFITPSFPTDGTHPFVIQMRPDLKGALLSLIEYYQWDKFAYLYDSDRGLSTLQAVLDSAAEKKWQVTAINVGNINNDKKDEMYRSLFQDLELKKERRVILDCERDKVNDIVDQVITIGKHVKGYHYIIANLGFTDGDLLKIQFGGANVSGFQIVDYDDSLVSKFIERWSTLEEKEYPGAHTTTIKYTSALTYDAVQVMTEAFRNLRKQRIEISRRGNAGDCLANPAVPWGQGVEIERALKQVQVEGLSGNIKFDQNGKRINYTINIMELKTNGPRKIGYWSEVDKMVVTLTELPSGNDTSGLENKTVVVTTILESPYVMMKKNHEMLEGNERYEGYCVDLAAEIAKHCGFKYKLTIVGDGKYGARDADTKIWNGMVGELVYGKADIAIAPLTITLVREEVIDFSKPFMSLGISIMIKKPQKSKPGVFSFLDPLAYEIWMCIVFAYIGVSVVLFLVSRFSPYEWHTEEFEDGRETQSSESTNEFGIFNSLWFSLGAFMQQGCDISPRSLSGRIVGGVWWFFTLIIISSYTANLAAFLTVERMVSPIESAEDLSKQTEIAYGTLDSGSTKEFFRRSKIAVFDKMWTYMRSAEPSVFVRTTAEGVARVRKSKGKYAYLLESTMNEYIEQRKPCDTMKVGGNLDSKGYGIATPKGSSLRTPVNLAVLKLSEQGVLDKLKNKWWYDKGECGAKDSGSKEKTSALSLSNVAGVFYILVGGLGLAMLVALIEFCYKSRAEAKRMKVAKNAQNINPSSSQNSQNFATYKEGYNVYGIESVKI

Take `CC(C)S(=O)(=O)N[C@@H]1COC[C@@H]1c1ccc(-c2ccc(F)nc2)cc1` (racemic) [Example 1, N-{cis-4-[4-(6-fluoro-3-pyridinyl)phenyl]tetrahydro-3-furanyl}-2-propanesulfonamide]: the Emax was not below 50%.
Consider `Cc1ccc(-c2ccc([C@H]3COC[C@H]3NS(=O)(=O)C(C)C)cc2)cn1` (racemic) [Example 2, N-{cis-4-[4-(6-methyl-3-pyridinyl)phenyl]tetrahydro-3-furanyl}-2-propanesulfonamide], for which the Emax is not below 50%.
As for `CC(C)S(=O)(=O)N[C@@H]1COC[C@@H]1c1ccc(-c2ccc(F)cn2)cc1` (racemic) [Example 3, N-{cis-4-[4-(5-fluoro-2-pyridinyl)phenyl]tetrahydro-3-furanyl}-2-propanesulfonamide], the Emax is not below 50%.
For `CC(C)S(=O)(=O)N[C@@H]1COC[C@@H]1c1ccc(-c2cncc(F)c2)cc1` (racemic) [Example 4, N-{cis-4-[4-(5-fluoro-3-pyridinyl)phenyl]tetrahydro-3-furanyl}-2-propanesulfonamide], the Emax is not below 50%.
The same measure for `CC(C)S(=O)(=O)N[C@@H]1COC[C@@H]1c1ccc(-c2ccc(Cl)cn2)cc1` (racemic) [Example 5, N-{cis-4-[4-(5-chloro-2-pyridinyl)phenyl]tetrahydro-3-furanyl}-2-propanesulfonamide]: not below 50%; for `Cc1cncc(-c2ccc([C@H]3COC[C@H]3NS(=O)(=O)C(C)C)cc2)c1` (racemic) [Example 6, N-{cis-4-[4-(5-methyl-3-pyridinyl)phenyl]tetrahydro-3-furanyl}-2-propanesulfonamide]: not below 50%.
As for `CC(C)S(=O)(=O)N[C@@H]1COC[C@@H]1c1ccc(-c2ccc(F)cc2)cc1` (racemic) [Example 7, N-[cis-4-(4′-fluoro-4-biphenylyl)tetrahydro-3-furanyl]-2-propanesulfonamide], the figure is not below 50%; as for `CC(C)S(=O)(=O)N[C@@H]1COC[C@@H]1c1ccc(-c2ccc(C#N)cc2)cc1` (racemic) [Example 8, N-[cis-4-(4′-cyano-4-biphenylyl)tetrahydro-3-furanyl]-2-propanesulfonamide], not below 50%; as for `CC(=O)c1cccc(-c2ccc([C@H]3COC[C@H]3NS(=O)(=O)C(C)C)cc2)c1` (racemic) [Example 9, N-[cis-4-(3′-acetyl-4-biphenylyl)tetrahydro-3-furanyl]-2-propanesulfonamide], not below 50%.
As for `CC(C)S(=O)(=O)N[C@@H]1COC[C@@H]1c1ccc(-c2ccc3c(c2)OCO3)cc1` (racemic) [Example 10, N-{cis-4-[4-(1,3-benzodioxol-5-yl)phenyl]tetrahydro-3-furanyl}-2-propanesulfonamide], the figure is not below 50%; as for `CC(C)S(=O)(=O)N[C@@H]1COC[C@@H]1c1ccc(-c2ccsc2)cc1` (racemic) [Example 11, N-{cis-4-[4-(3-thienyl)phenyl]tetrahydro-3-furanyl}-2-propanesulfonamide], not below 50%.
On to `CC(C)S(=O)(=O)N[C@@H]1COC[C@@H]1c1ccc(-c2cccs2)cc1` (racemic) [Example 12, N-{cis-4-[4-(2-thienyl)phenyl]tetrahydro-3-furanyl}-2-propanesulfonamide], for which the Emax was not below 50%.
